Reference: ChEMBL document CHEMBL1155422, “SAR of tertiary carbinamine derived BACE1 inhibitors: role of aspartate ligand amine pKa in enzyme inhibition” (Bioorg Med Chem Lett, 2010)

Key:
Beta-secretase 1 [1] = molecular target: T1, Beta-secretase 1 (Homo sapiens, UniProt P56817); test: Inhibition of BACE1
Beta-secretase 1 [2] = molecular target: T1, Beta-secretase 1; test: Inhibition of human BACE1 expressed in mouse fibroblast cells assessed as inhibition of secreted APPbeta-NF production at pH 7.2; format: cell-based

T1 sequence (P56817 whole entry): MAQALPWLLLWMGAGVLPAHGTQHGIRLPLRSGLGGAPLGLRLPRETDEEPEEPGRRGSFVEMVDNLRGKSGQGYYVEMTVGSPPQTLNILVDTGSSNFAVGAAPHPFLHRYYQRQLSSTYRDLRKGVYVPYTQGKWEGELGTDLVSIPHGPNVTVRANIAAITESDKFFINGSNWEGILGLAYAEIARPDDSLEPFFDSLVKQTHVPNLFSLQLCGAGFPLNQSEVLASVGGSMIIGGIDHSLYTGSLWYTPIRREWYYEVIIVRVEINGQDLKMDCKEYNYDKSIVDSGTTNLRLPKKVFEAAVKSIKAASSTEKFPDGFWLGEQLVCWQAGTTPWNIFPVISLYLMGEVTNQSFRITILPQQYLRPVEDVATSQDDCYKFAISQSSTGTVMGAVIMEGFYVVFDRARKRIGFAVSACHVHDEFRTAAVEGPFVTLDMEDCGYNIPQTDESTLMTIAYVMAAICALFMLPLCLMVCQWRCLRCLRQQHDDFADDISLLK

Structure (SMILES) | IC50 (Beta-secretase 1 [1]) [nM] | IC50 (Beta-secretase 1 [2]) [nM]
C[C@@H](NC(=O)c1cc(OCCC(N)(CO)Cc2ccccc2)cc(N(C)S(C)(=O)=O)c1)c1ccc(F)cc1 (some centres undefined) | 70500 | –
COCC(N)(COCc1cc(C(=O)N[C@H](C)c2ccc(F)cc2)cc(N(C)S(C)(=O)=O)c1)Cc1ccccc1 (mixture of isomers) | > 100000 | –
C[C@@H](NC(=O)c1cc(C(=O)NCC(O)(CO)Cc2ccccc2)cc(N(C)S(C)(=O)=O)c1)c1ccc(F)cc1 (some centres undefined) | 24900 | –
C[C@@H](NC(=O)c1cc(CNC[C@](N)(CO)Cc2ccccc2)cc(N(C)S(C)(=O)=O)c1)c1ccc(F)cc1 | 10100 | 3470
C[C@@H](NC(=O)c1cc(COCC(N)(CF)Cc2ccccc2)cc(N(C)S(C)(=O)=O)c1)c1ccc(F)cc1 (mixture of isomers) | 997 | 432
C[C@@H](NC(=O)c1cc(N(C)S(C)(=O)=O)cc(S(=O)(=O)CCC(N)(CO)Cc2ccccc2)c1)c1ccc(F)cc1 (some centres undefined) | > 100000 | –
C[C@@H](NC(=O)c1cc(SCCC(N)(CO)Cc2ccccc2)cc(N(C)S(C)(=O)=O)c1)c1ccc(F)cc1 (some centres undefined) | > 100000 | –
C[C@@H](NC(=O)c1cc(-c2ncc([C@](C)(N)Cc3ccccc3)o2)cc(N(C)S(C)(=O)=O)c1)c1ccc(F)cc1 | 7 | 5
C[C@@H](NC(=O)c1cc(CNC(=O)C(C)(N)Cc2ccccc2)cc(N(C)S(C)(=O)=O)c1)c1ccc(F)cc1 (some centres undefined) | 5720 | –
C[C@@H](NC(=O)c1cc(N(C)S(C)(=O)=O)cc(-n2cc([C@](C)(N)Cc3ccccc3)nn2)c1)c1ccc(F)cc1 | 16300 | –
CCC(N)(COCc1cc(C(=O)N[C@H](C)c2ccc(F)cc2)cc(N(C)S(C)(=O)=O)c1)Cc1ccccc1 (mixture of isomers) | 22000 | –
C[C@@H](NC(=O)c1cc(COC(=O)C(C)(N)Cc2ccccc2)cc(N(C)S(C)(=O)=O)c1)c1ccc(F)cc1 (some centres undefined) | 19 | 163
C[C@@H](NC(=O)c1cc(C(=O)OCC(O)(CN)Cc2ccccc2)cc(N(C)S(C)(=O)=O)c1)c1ccc(F)cc1 (some centres undefined) | 22200 | –
C[C@@H](NC(=O)c1cc(CCC[C@](N)(CO)Cc2ccccc2)cc(N(C)S(C)(=O)=O)c1)c1ccc(F)cc1 | 22400 | –
C[C@@H](NC(=O)c1cc(-c2nnc([C@](C)(N)Cc3ccccc3)s2)cc(N(C)S(C)(=O)=O)c1)c1ccc(F)cc1 | 29900 | –
C[C@@H](NC(=O)c1cc(CNC(=O)C(N)(CO)Cc2ccccc2)cc(N(C)S(C)(=O)=O)c1)c1ccc(F)cc1 (some centres undefined) | 18100 | –
C[C@@H](NC(=O)c1cc(NCCC(N)(CO)Cc2ccccc2)cc(N(C)S(C)(=O)=O)c1)c1ccc(F)cc1 (some centres undefined) | > 100000 | –
C[C@@H](NC(=O)c1cc(-c2ccc(C(C)(N)Cc3ccccc3)o2)cc(N(C)S(C)(=O)=O)c1)c1ccc(F)cc1 (mixture of isomers) | 20 | 4
C[C@@H](NC(=O)c1cc(-c2nc([C@](C)(N)Cc3ccccc3)no2)cc(N(C)S(C)(=O)=O)c1)c1ccc(F)cc1 | 1830 | –
C[C@@H](NC(=O)c1cc(COC[C@H](N)Cc2ccccc2)cc(N(C)S(C)(=O)=O)c1)c1ccc(F)cc1 | 10100 | 1710
C[C@@H](NC(=O)c1cc(COCC(N)(Cc2ccccc2)C(F)F)cc(N(C)S(C)(=O)=O)c1)c1ccc(F)cc1 (mixture of isomers) | 925 | > 20000
C[C@@H](NC(=O)c1cc(-c2n[nH]c([C@](C)(N)Cc3ccccc3)n2)cc(N(C)S(C)(=O)=O)c1)c1ccc(F)cc1 | 822 | 4740
C[C@@H](NC(=O)c1cc(COC(=O)C(N)(CO)Cc2ccccc2)cc(N(C)S(C)(=O)=O)c1)c1ccc(F)cc1 (some centres undefined) | 310 | 684
C[C@@H](NC(=O)c1cc(-c2noc([C@](C)(N)Cc3ccccc3)n2)cc(N(C)S(C)(=O)=O)c1)c1ccc(F)cc1 | 2060 | –
C[C@@H](NC(=O)c1cc(COC[C@](N)(CO)Cc2ccccc2)cc(N(C)S(C)(=O)=O)c1)c1ccc(F)cc1 | 1370 | 580
CNC(CO)(COC(=O)c1cc(C(=O)N[C@H](C)c2ccc(F)cc2)cc(N(C)S(C)(=O)=O)c1)Cc1ccccc1 (some centres undefined) | > 100000 | –
C[C@@H](NC(=O)c1cc(C(=O)NCC(N)(CO)Cc2ccccc2)cc(N(C)S(C)(=O)=O)c1)c1ccc(F)cc1 (some centres undefined) | 10800 | –
C[C@@H](NC(=O)c1cc(COC[C@](C)(N)Cc2ccccc2)cc(N(C)S(C)(=O)=O)c1)c1ccc(F)cc1 | 344 | 138
